According to PubChem BioAssay AID1419 (Emory University Molecular Libraries Screening Center, 2008):
pIC50: −log10 of the molar value. Active and inactive are the calls of the source. How the calls were made is not given here.

Experiment: EBV protein-peptide binding inhibitors, dose response, biochemical, fluorescence polarization (AID 1419)
Conditions: cell-free protein-peptide binding, 2 h; for fold change: measured here: P channel fold over control, at 54 µM

With `Cc1ccccc1N1C(=O)c2cccc3c(N(C)CCO)ccc(c23)C1=O` as the compound, how does the pIC50 read?
The pIC50 was 6.13.

And the fold change?
The fold change was 14.

Which results are given for `C=CCn1c(CSc2nc3ccccc3s2)nnc1SCC(=O)NCc1ccco1`?
IC50: > 54 µM (inactive); fold change: 0.923

With `Cc1cc2c(cc1C)NC(c1c(C)n(C)n(-c3ccccc3)c1=O)C1=C(CC(C)(C)CC1=O)N2` (stereo not given) as the compound, how does the pIC50 read?
Its pIC50 is 5.49.

What about the fold change of the same compound?
The fold change was 3.49.

Which results are given for `Cc1ccc(-c2cn3nc(-c4ccccc4)c(-c4ccccc4)nc3n2)cc1`?
pIC50: 5.88; fold change: 37.6

Which results are given for `N#C/C(=C\c1sc(N2CCOCC2)nc1-c1ccccc1)C(=O)Nc1cccc2ccccc12`?
IC50: 30.8 µM (inactive); fold change: 3.26

With `CCOC(=O)C1CCCN(c2nc3ccccc3nc2C(C#N)C(=O)NCc2ccccc2)C1` (stereo not given) as the compound, how does the pIC50 read?
Its pIC50 is 5.05.

And the fold change?
The fold change was 2.73.

With `CCN(CC)c1ccc(/C=C(/C#N)c2nc3ccccc3[nH]2)c(OC(C)C)c1` as the compound, how does the pIC50 read?
The pIC50 was 4.97.

What about the fold change of the same compound?
The fold change was 14.3.

What does the source list for `O=C(Cn1c2ccccc2c(=O)c2ccccc21)N/N=C/c1ccc(N2CCCC2)c([N+](=O)[O-])c1`?
IC50: > 54 µM (inactive); fold change: 0.76

What does the source list for `Cc1ccc(C2=N/C(=C\c3c(C)nn(-c4ccccc4)c3N3CCCC3)C(=O)O2)cc1`?
pIC50: 5.24; fold change: 6.13

With `Cc1ccccc1C(=O)Nc1ccc2c(C#N)c3nc4ccccc4nc3n2c1` as the compound, how does the pIC50 read?
Its pIC50 is 4.86.

And the fold change?
Its fold change is 0.993.

With `Cc1ccc(C2C(C(=O)c3cccs3)=C(O)C(=O)N2c2nnc(C)s2)cc1` (stereo not given) as the compound, how does the pIC50 read?
The pIC50 was 6.05.

And the fold change?
The fold change was 3.94.

With `COc1ccc(/C=C2\SC(=S)N(CCCC(=O)Nc3ccccn3)C2=O)cc1OC` as the compound, how does the pIC50 read?
Its pIC50 is 5.06.

And the fold change?
The fold change was 9.33.

With `COC(=O)C1=COC(C)C2CN3CCc4c([nH]c5cc(OC)c(OC)cc45)C3CC12` (stereo not given) as the compound, how does the pIC50 read?
Its pIC50 is 5.06.

What about the fold change of the same compound?
The fold change was 2.6.

Which results are given for `Fc1ccccc1C(c1nnnn1C1CCCC1)N1CCN(Cc2ccccc2)CC1` (stereo not given)?
IC50: > 54 µM (inactive); fold change: 1.05

With `Cc1c(N=C2N=C(NC(=O)c3cccs3)c3ccccc32)c(=O)n(-c2ccccc2)n1C` as the compound, how does the pIC50 read?
Its pIC50 is 5.50.

What about the fold change of the same compound?
Its fold change is 4.49.

With `C=CCn1c(C)cc(C(=O)COC(=O)COc2ccccc2C#N)c1C` as the compound, how does the IC50 read?
Its IC50 is > 54 µM (inactive).

And the fold change?
Its fold change is 1.04.

With `O=C(Nc1ccccc1F)C(=Cc1sc(N2CCOCC2)nc1-c1ccccc1)C(=O)Nc1ccccc1F` as the compound, how does the pIC50 read?
Its pIC50 is 5.24.

And the fold change?
Its fold change is 7.63.

Which results are given for `O=C(COC(=O)c1c2c(nc3ccccc13)/C(=C/c1ccco1)CC2)NC1CCCC1`?
IC50: > 54 µM (inactive); fold change: 2.02

Which IC50 does the source give for `O=c1[nH]c(=O)n(Cc2ccccc2Cl)c(O)c1/C=C1/C=CC=N1` here?
The IC50 was > 54 µM (inactive).

What about the fold change of the same compound?
The fold change was 1.75.

Which results are given for `CN(C)c1ncnc2c1NC1=C(S2)C(=NCCCC(=O)O)CC(C)(C)C1`?
pIC50: 5.24; fold change: 3.35

Which IC50 does the source give for `C/C(=N/OC(=O)c1c(-c2c(Cl)cccc2Cl)noc1C)c1cnccn1` here?
Its IC50 is > 54 µM (inactive).

And the fold change?
The fold change was 0.997.

For `CC1=C/C(=C\c2ccc(Br)o2)C(=O)O1`, which IC50 is on record?
The IC50 was > 54 µM (inactive).

What about the fold change of the same compound?
The fold change was 0.98.

With `COc1ccc2nc(N3CCCCC3)c(C#N)cc2c1` as the compound, how does the pIC50 read?
Its pIC50 is 5.34.

And the fold change?
Its fold change is 3.52.

What does the source list for `CCN(CC)c1ccc2cc(S(=O)(=O)c3ccc(C)cc3)c(=O)oc2c1`?
pIC50: 5.20; fold change: 36.6

Which results are given for `COc1ccc2ccccc2c1C(O)c1nccn1C` (stereo not given)?
pIC50: 5.57; fold change: 5.13

With `NC(=S)n1[nH]c(-c2ccc([N+](=O)[O-])cc2)c(N=Nc2cccc(Cl)c2)c1=O` as the compound, how does the pIC50 read?
Its pIC50 is 5.43.

And the fold change?
The fold change was 1.19.

With `Cc1cc(C)n2c(SC/C(O)=C(\C#N)c3nc4ccccc4[nH]3)nnc2n1` as the compound, how does the pIC50 read?
The pIC50 was 4.70.

And the fold change?
Its fold change is 1.1.

With `COc1ccc(N=Nc2nc3ccc(Br)cc3n2C)cc1` as the compound, how does the IC50 read?
Its IC50 is > 54 µM (inactive).

What about the fold change of the same compound?
The fold change was 1.28.

With `N#Cc1c(C#N)c(O)c2ccccc2c1O` as the compound, how does the pIC50 read?
The pIC50 was 5.40.

What about the fold change of the same compound?
Its fold change is 3.34.

What does the source list for `COc1ccc(C2C(C(=O)c3cccs3)=C(O)C(=O)N2c2nncs2)cc1` (stereo not given)?
pIC50: > 6.38; fold change: 13

Which results are given for `Cc1cc2nc3c(=O)n(Cc4ccccc4)c(=O)[nH]c3nc2cc1N`?
pIC50: > 6.38; fold change: 87.1

With `NC(=O)c1ccc(N=Nc2c(O)c3ccccc3[nH]c2=O)cc1` as the compound, how does the pIC50 read?
Its pIC50 is 4.88.

And the fold change?
Its fold change is 2.71.

With `C=CCn1c(=O)/c(=C/c2cc(OC)c(OC)c(OC)c2)s/c1=C(/C#N)c1nc2ccccc2n1C` as the compound, how does the pIC50 read?
Its pIC50 is 5.46.

And the fold change?
Its fold change is 15.9.

With `CCN(CC)c1ccc(/C=C(/C#N)c2nc3ccc(C)cc3[nH]2)c(OC(C)C)c1` as the compound, how does the pIC50 read?
The pIC50 was 5.82.

What about the fold change of the same compound?
Its fold change is 22.

For `CCOC(=O)C1=NNC(C(=O)c2ccc(Cl)cc2)C1c1ccc(OC)cc1` (stereo not given), which IC50 is on record?
Its IC50 is > 54 µM (inactive).

What about the fold change of the same compound?
Its fold change is 0.933.

With `Nc1cc2c3c(cccc3c1)C(=O)N(CCN1CCCC1)C2=O` as the compound, how does the pIC50 read?
The pIC50 was 5.32.

And the fold change?
The fold change was 3.92.

For `COc1ccc(/C=C2\SC(c3ccc(C)cc3)=NC2=O)cc1OC`, which IC50 is on record?
Its IC50 is > 54 µM (inactive).

What about the fold change of the same compound?
Its fold change is 8.37.

Which results are given for `Cc1cc(NC(=O)Cc2cccs2)no1`?
pIC50: 4.77; fold change: 1.09

For `CCOCCCNc1nc2c(C)cccn2c(=O)c1/C=C1\SC(=S)N(CC(C)C)C1=O`, which IC50 is on record?
The IC50 was > 54 µM (inactive).

What about the fold change of the same compound?
The fold change was 1.58.

What does the source list for `COc1ccc(-n2c(N)c(C#N)c3ccc([N+](=O)[O-])cc3c2=O)cc1`?
IC50: > 54 µM (inactive); fold change: 1.45
